Test results as given in the NIST ThermoML archive (doi:10.1021/je300339q).
Numbers after ± are expanded uncertainties.

Columns and labels:
[1] = mn = molality of the nth substance listed, in mol/kg; conditions: 101 kPa, Liquid, Direct current cell with electrodes
[2] = 101.33 kPa, Liquid; for viscosity: Capillary tube (Ostwald / Ubbelohde) method; for mass density: Vibrating tube method

CCCCn1cc[n+](CCC)c1.[Br-] [1-butyl-3-propyl-1H-imidazolium bromide] + CC#N
molar conductivity [S·m2/mol], [1]
Conditions | 308 K | 313 K | 318 K
m1 = 0.01014 | 0.00955 ± 6e-06 | 0.010075 ± 7e-06 | 0.01063 ± 7e-06
m1 = 0.01352 | 0.00916 ± 6e-06 | 0.009604 ± 6e-06 | 0.010128 ± 7e-06
m1 = 0.01803 | 0.008751 ± 5e-06 | 0.009155 ± 6e-06 | 0.009627 ± 6e-06
m1 = 0.02405 | 0.008325 ± 5e-06 | 0.008691 ± 5e-06 | 0.009114 ± 6e-06
m1 = 0.0275 | 0.008123 ± 5e-06 | – | –
m1 = 0.03209 | 0.007883 ± 4e-06 | 0.008213 ± 5e-06 | 0.008595 ± 5e-06
m1 = 0.04281 | 0.007424 ± 4e-06 | 0.007724 ± 4e-06 | 0.008054 ± 5e-06
m1 = 0.04875 | – | 0.007467 ± 4e-06 | 0.007807 ± 5e-06
m1 = 0.05714 | 0.006944 ± 4e-06 | 0.007222 ± 4e-06 | 0.007523 ± 4e-06
m1 = 0.0656 | 0.006707 ± 4e-06 | 0.006956 ± 4e-06 | 0.007255 ± 4e-06
m1 = 0.07628 | 0.006433 ± 4e-06 | 0.006701 ± 4e-06 | 0.006968 ± 4e-06
m1 = 0.08982 | 0.006124 ± 4e-06 | 0.006393 ± 4e-06 | 0.006648 ± 4e-06
m1 = 0.09987 | 0.00592 ± 4e-06 | 0.006199 ± 4e-06 | 0.006435 ± 4e-06

CCCCn1cc[n+](CCC)c1.[Br-] [1-butyl-3-propyl-1H-imidazolium bromide] + CO
molar conductivity [S·m2/mol], [1]
Conditions | 308 K | 313 K | 318 K
m1 = 0.005755 | 0.006546 ± 5e-06 | – | 0.00748 ± 6e-06
m1 = 0.007673 | 0.006395 ± 5e-06 | 0.006815 ± 6e-06 | 0.00729 ± 6e-06
m1 = 0.01023 | 0.006239 ± 5e-06 | 0.006658 ± 5e-06 | 0.007119 ± 6e-06
m1 = 0.01364 | 0.006083 ± 5e-06 | 0.006493 ± 5e-06 | 0.006946 ± 6e-06
m1 = 0.01819 | 0.005932 ± 5e-06 | 0.006333 ± 5e-06 | 0.006781 ± 6e-06
m1 = 0.02425 | 0.005792 ± 5e-06 | 0.006185 ± 5e-06 | 0.006627 ± 6e-06
m1 = 0.03234 | 0.005668 ± 5e-06 | 0.006052 ± 5e-06 | 0.006491 ± 5e-06
m1 = 0.04311 | 0.005561 ± 5e-06 | 0.005936 ± 5e-06 | 0.006371 ± 5e-06
m1 = 0.05749 | 0.005468 ± 5e-06 | 0.005832 ± 5e-06 | 0.006257 ± 5e-06
m1 = 0.07665 | 0.005372 ± 5e-06 | 0.005703 ± 5e-06 | 0.006123 ± 5e-06
m1 = 0.09017 | 0.005304 ± 4e-06 | 0.005611 ± 5e-06 | 0.006016 ± 5e-06
m1 = 0.1002 | 0.005238 ± 4e-06 | 0.00554 ± 5e-06 | 0.005923 ± 5e-06

CCCCn1cc[n+](CCC)c1.[Br-] [1-butyl-3-propyl-1H-imidazolium bromide] + O
molar conductivity [S·m2/mol], [1]
Conditions | 308 K | 313 K | 318 K
m1 = 0.005651 | 0.012224 ± 1.1e-05 | 0.013136 ± 1e-05 | 0.01387 ± 1e-05
m1 = 0.007536 | 0.012106 ± 1.1e-05 | 0.013013 ± 1e-05 | 0.01376 ± 1e-05
m1 = 0.01005 | 0.011972 ± 1.1e-05 | 0.012872 ± 1e-05 | 0.013625 ± 1e-05
m1 = 0.01341 | 0.011818 ± 1.1e-05 | 0.012712 ± 1e-05 | 0.013474 ± 1e-05
m1 = 0.0179 | 0.011642 ± 1.1e-05 | 0.012531 ± 1e-05 | 0.013305 ± 1e-05
m1 = 0.02389 | 0.011441 ± 1.1e-05 | 0.01232 ± 1e-05 | 0.013116 ± 1e-05
m1 = 0.0319 | 0.011212 ± 1.1e-05 | 0.012091 ± 1e-05 | 0.012905 ± 1e-05
m1 = 0.04262 | 0.01095 ± 1.1e-05 | 0.011824 ± 1.1e-05 | 0.012669 ± 1e-05
m1 = 0.05696 | 0.01065 ± 1e-05 | 0.011518 ± 1.1e-05 | 0.012401 ± 1.1e-05
m1 = 0.07621 | 0.010304 ± 1e-05 | 0.011165 ± 1.1e-05 | 0.012094 ± 1.1e-05
m1 = 0.08987 | 0.010084 ± 1e-05 | 0.01094 ± 1.1e-05 | 0.011898 ± 1.1e-05
m1 = 0.1 | 0.00996 ± 1e-05 | 0.0108 ± 1.1e-05 | 0.01177 ± 1.1e-05

CC#N [acetonitrile]
[2]
Conditions | mass density [kg/m3] | viscosity [mPa·s]
308.15 K | 765.64 ± 0.25 | 0.3125 ± 0.013
313.15 K | 759.7 ± 0.25 | 0.3042 ± 0.013
318.15 K | 755.01 ± 0.25 | 0.2903 ± 0.011

CO [methanol]
[2]
Conditions | mass density [kg/m3] | viscosity [mPa·s]
308.15 K | 777.18 ± 0.13 | 0.4747 ± 0.0059
313.15 K | 772.5 ± 0.13 | 0.444 ± 0.0058
318.15 K | 767.7 ± 0.13 | 0.4185 ± 0.0057
